# Key:
# [1] = tested on: Fah−/− mice; experiment: Compatibility between NTBC (standard of care) and GENERIDE, NTBC titration; format: in vivo, mouse; settings: high doses of NTBC
# Description: Four-week-old Fah−/− animals were treated with rAAV.DJ-GR-mFAH at dosages of 1e14 vg/kg via retro-orbital sinus under anesthesia. All mice were kept on 8 mg/L of NTBC prior to the initiation of the study until 4 weeks post dosing, and then NTBC were either maintained at 8 mg/L (control) or titrated down to 3 mg/L, 0.8 mg/L, or 0.3 mg/L for 8 weeks. During the study, animals were sampled periodically by submandibular bleed and plasma was collected and stored at −80° C. until further analysis. At sacrifices, blood was collected for plasma via cardiac puncture. For liver dissection, one lobe of liver was fixed by 10% formalin, and the remaining was snap-frozen and stored at −80° C. Next day, formalin-fixed liver was transferred to 70% ethanol for paraffin embedding.
# Viral vectors comprising an AAV-DJ viral capsid, mouse FAH (mFAH) transgene, P2A sequence, and flanking 5′ homology arm 1000 nucleotides (nt) in length and a 3′ homology arm 1600 nt in length homology arms were constructed. Homology arms were designed for complementarity to a mouse genomic albumin target integration site. Viral vectors herein described were administered at a dosage of 1e14 vg/kg to […] groups (Groups 1, 2, 3, 4) of Fah−/− mice via intravenous injection at 4 weeks of age. […] Mice were assessed for circulating biomarkers (e.g., levels of ALB-2A) for up to 6 weeks post-NTBC titration (FIG. 4B).
# [2] = tested on: HT1 patients; settings: cited from earlier work
# [3] = tested on: Fah−/− mice; experiment: Disease progression and resolution with and without NTBC (NTBC cycling); format: in vivo, mouse
# Description: Fah−/− mice were kept on 8 mg/L of NTBC-drinking water prior to the initiation of the study at 7 weeks of age. Animals were then supplied with regular water (NTBC off) for 7 days, followed by NTBC-containing water at 8 mg/L for another 7 days. The above cycling was repeated for another 14 days. During the study, animals were monitored for daily body weight. Submandibular blood and urine were sampled periodically, and serum and plasma were collected and stored at −80° C. until further analysis. At sacrifice, blood was collected for plasma via cardiac puncture. For liver dissection, one lobe of liver was fixed by 10% formalin, and the remaining was snap-frozen and stored at −80° C. The following day, the formalin-fixed liver was transferred to 70% ethanol for paraffin embedding.
smiles,measurement,setting,value
"O=C1CCCC(=O)C1C(=O)c1ccc(C(F)(F)F)cc1[N+](=O)[O-] [NTBC, 2-(2-nitro-4-trifluoromethylbenzoyl)-1,3cyclohexanedione]",effect on selective expansion of GENERIDE edited cells (hepatocytes),[1],prevent selective expansion
same,"risk of developing HCC, NTBC started after the neonatal period compared to patients treated as neonates",[2],2-12 fold
same,"time to restore levels of disease biomarkers (SUAC) and liver synthetic function (aPTT, ALT, blood glucose)",[3]; NTBC 8 mg/L drinking water,less than 7 days
same,time to abnormal levels of disease biomarkers (SUAC) and liver synthetic function upon withdrawal,[3]; NTBC withdrawal,less than 3 days
